Laboratory results as given in patent US20050239656A1, “Pyridine compounds or salts thereof and herbicides containing the same” (priority 2002, published 2005).

Assays:
[1] = test system: corn; assay: Test Example 1: foliage treatment, upland pot test; format: in vivo, Zea mays L.; settings: crop, observed 18th to 23rd day, 0 = non-treated, 100 = complete kill
Method in brief: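 In this upland pot foliage test, corn plants at 2.1 to 3.2 leaf stages were sprayed by a small size sprayer. The spray was a conventionally formulated wettable powder or emulsifiable concentrate weighed to a set active ingredient amount, diluted in water at 500 L/ha, plus 0.1% (v/v) agricultural spreader. Visual assessment on days 18 to 23 gave growth controlling degree (%), where 0 equals untreated and 100 means complete kill.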

[2] = test system: barnyardgrass; assay: Test Example 1: foliage treatment, upland pot test; format: in vivo, Echinochloa crus-galli L.; settings: observed 18th to 23rd day, 0 = non-treated, 100 = complete kill
Method in brief: (§1)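 Pots of upland field soil were sown and sprayed post-emergence at soybean 0.1–0.4, wheat 1.3–2.4, rice 1.2–2.6 and barnyardgrass 1.3–2.8 leaf stages. Formulations were diluted in water at 500 L/ha with 0.1% (v/v) spreader. Growth control (0 = untreated, 100 = complete kill) was judged by eye 18–23 days later.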

[3] = test system: soybean; assay: Test Example 2: soil surface treatment, upland pot test; format: in vivo, Glycine max Merr.; settings: observed 20th to 28th day
Method in brief: (§2)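 Readout was visual percent growth control (0 matching untreated, 100 complete kill) at days 20–28. Compound, as emulsifiable concentrate or wettable powder at a preset active-ingredient rate in 1,500 L/ha water, was sprayed onto sown upland soil one day after sowing.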

[4] = test system: soybean; assay: Test Example 1: foliage treatment, upland pot test; format: in vivo, Glycine max Merr.; settings: crop, observed 18th to 23rd day, 0 = non-treated, 100 = complete kill
Method in brief: as §1

[5] = test system: green foxtail; assay: Test Example 1: foliage treatment, upland pot test; format: in vivo, Setaria viridis L.; settings: observed 18th to 23rd day, 0 = non-treated, 100 = complete kill
Description: (§3) Upland field soil was put into a 1/170,000 ha pot, and seed of various plants were sown. Then, when the plants reached predetermined leaf stages ((1) barnyardgrass: 1.3 to 2.8 leaf stages, (2) crabgrass: 1.0 to 2.8 leaf stages, (3) green foxtail: 1.3 to 2.6 leaf stages, (4) redroot pigweed: 0.1 to 1.2 leaf stages, (5) prickly sida: 0.1 to 1.2 leaf stages, (6) velvetleaf: 0.1 to 1.2 leaf stages, (7) tall morningglory: 0.1 to 1.5 leaf stages, (8) rice: 1.2 to 2.6 leaf stages, (9) wheat: 1.3 to 2.4 leaf stages, (10) corn, 2.1 to 3.2 leaf stages, (11) soybean: 0.1 to 0.4 leaf stage), a wettable powder or emulsifiable concentrate having the compound of the present invention formulated in accordance with a usual formulation method, was weighed so that the active ingredient would be a predetermined amount, and diluted with water in an amount of 500 L/ha. To the diluted solution, 0.1% (v/v) of agricultural spreader was added. The herbicide thus adjusted was applied by a small size sprayer for foliage treatment. On the 18th to 23rd days after the application of the herbicide, the growth of the respective plants was visually observed, and the herbicidal effects were evaluated by the growth controlling degrees (%) ranging from 0 (equivalent to the non-treated plot) to 100 (complete kill), whereby the results shown in Table 3, were obtained.

[6] = test system: redroot pigweed; assay: Test Example 1: foliage treatment, upland pot test; format: in vivo, Amaranthus retroflexus L.; settings: observed 18th to 23rd day, 0 = non-treated, 100 = complete kill
[7] = test system: velvetleaf; assay: Test Example 2: soil surface treatment, upland pot test; format: in vivo, Abutilon theophrasti MEDIC.; settings: observed 20th to 28th day
Method in brief: as §2

[8] = test system: corn; assay: as above; format: in vivo, Zea mays L.; settings: observed 20th to 28th day
Method in brief: as §2

[9] = test system: crabgrass; assay: as above; format: in vivo, Digitaria sanguinalis L.; settings: observed 20th to 28th day
Method in brief: as §2

[10] = test system: prickly sida; assay: Test Example 1: foliage treatment, upland pot test; format: in vivo, Sida spinosa L.; settings: observed 18th to 23rd day, 0 = non-treated, 100 = complete kill
[11] = test system: japanese ribbon wapato; assay: Test Example 3: paddy pot test, application under submerged conditions; format: in vivo, Sagittaria pygniaea; settings: active ingredient 500 g/ha; submerged application at primary leaf stage; visually observed 14 days after application; 0 = non-treated, 100 = complete kill
Method in brief: (§4)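 After sowing seeds and planting wapato tubers in flooded paddy soil, an aqueous dilution of the formulated compound was added to the 3–4 cm flood water at early leaf stage. Percent growth control relative to the untreated plot was assessed visually on day 14.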

[12] = test system: prickly sida; assay: Test Example 2: soil surface treatment, upland pot test; format: in vivo, Sida spinosa L.; settings: observed 20th to 28th day
Method in brief: as §2

[13] = test system: green foxtail; assay: as above; format: in vivo, Setaria viridis L.; settings: observed 20th to 28th day
Method in brief: as §2

[14] = test system: rice; assay: Test Example 1: foliage treatment, upland pot test; format: in vivo, Oryza sativa L.; settings: crop, observed 18th to 23rd day, 0 = non-treated, 100 = complete kill
Method in brief: as §1

[15] = test system: crabgrass; assay: Test Example 1: foliage treatment, upland pot test; format: in vivo, Digitaria sanguinalis L.; settings: observed 18th to 23rd day, 0 = non-treated, 100 = complete kill
Description: as §3

[16] = test system: redroot pigweed; assay: Test Example 2: soil surface treatment, upland pot test; format: in vivo, Amaranthus retroflexus L.; settings: observed 20th to 28th day
Method in brief: as §2

[17] = test system: barnyardgrass; assay: as above; format: in vivo, Echinochloa crus-galli L.; settings: observed 20th to 28th day
Method in brief: as §2

[18] = test system: velvetleaf; assay: Test Example 1: foliage treatment, upland pot test; format: in vivo, Abutilon theophrasti MEDIC.; settings: observed 18th to 23rd day, 0 = non-treated, 100 = complete kill
[19] = test system: rice; assay: Test Example 2: soil surface treatment, upland pot test; format: in vivo, Oryza sativa L.; settings: observed 20th to 28th day
Method in brief: as §2

[20] = test system: rice (var. Nihonbare); assay: Test Example 3: paddy pot test, transplanted rice; format: in vivo, Oryza sativa L.; settings: active ingredient 500 g/ha, applied 4th day after transplantation, visually observed 21st day after application, 0 = non-treated, 100 = complete kill
Method in brief: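 Rice (2-leaf stage) was transplanted 3 cm deep into puddled, leveled paddy soil under 3–4 cm flooding. On day 4 after transplanting, diluted wettable powder or emulsifiable concentrate was pipetted onto the water at a predetermined active-ingredient dose. Growth control (0 = untreated, 100 = complete kill) was scored visually 21 days later.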

[21] = test system: japanese bulrush; assay: Test Example 3: paddy pot test, application under submerged conditions; format: in vivo, Scirpus juncoides; settings: active ingredient 500 g/ha; submerged application at 0.5 leaf stage; visually observed 14 days after application; 0 = non-treated, 100 = complete kill
Method in brief: as §4

Structure (SMILES)	Growth controlling degree (%) Japanese ribbon wapato [11] [%]	Growth controlling degree (%) Rice [20] [%]	Growth controlling degree (%) Japanese bulrush [21] [%]	Growth controlling degree (%) Corn ([1]; active ingredient 1000 g/ha) [%]	Growth controlling degree (%) Barnyardgrass ([2]; active ingredient 1000 g/ha) [%]	Growth controlling degree (%) Soyabean ([3]; active ingredient 500 g/ha) [%]	Growth controlling degree (%) Soybean ([4]; active ingredient 1000 g/ha) [%]	Growth controlling degree (%) Green foxtail ([5]; active ingredient 1000 g/ha) [%]	Growth controlling degree (%) Redroot pigweed ([6]; active ingredient 1000 g/ha) [%]	Growth controlling degree (%) Velvetleaf ([7]; active ingredient 500 g/ha) [%]	Growth controlling degree (%) Corn ([8]; active ingredient 500 g/ha) [%]	Growth controlling degree (%) Crabgrass ([9]; active ingredient 500 g/ha) [%]	Growth controlling degree (%) Prickly sida ([10]; active ingredient 1000 g/ha) [%]	Growth controlling degree (%) Prickly sida ([12]; active ingredient 500 g/ha) [%]	Growth controlling degree (%) Green foxtail ([13]; active ingredient 500 g/ha) [%]	Growth controlling degree (%) Rice ([14]; active ingredient 1000 g/ha) [%]	Growth controlling degree (%) Crabgrass ([15]; active ingredient 1000 g/ha) [%]	Growth controlling degree (%) Redroot pigweed ([16]; active ingredient 500 g/ha) [%]	Growth controlling degree (%) Barnyardgrass ([17]; active ingredient 500 g/ha) [%]	Growth controlling degree (%) Velvetleaf ([18]; active ingredient 1000 g/ha) [%]	further results
CC(C)C(c1cnccc1C(F)(F)F)N(C)C(=O)Cc1ccc(F)cc1 (stereo not drawn) [I-21]	100	40	98	–	–	–	–	–	–	–	–	–	–	–	–	–	–	–	–	–	Growth controlling degree (%) Corn ([1]; active ingredient 500 g/ha): 30%; Growth controlling degree (%) Barnyardgrass ([2]; active ingredient 500 g/ha): 80%; Growth controlling degree (%) Soyabean ([3]; active ingredient 250 g/ha): 20%; Growth controlling degree (%) Soybean ([4]; active ingredient 500 g/ha): 70%; Growth controlling degree (%) Green foxtail ([5]; active ingredient 500 g/ha): 70%; Growth controlling degree (%) Redroot pigweed ([6]; active ingredient 500 g/ha): 90%; Growth controlling degree (%) Velvetleaf ([7]; active ingredient 250 g/ha): 70%; Growth controlling degree (%) Corn ([8]; active ingredient 250 g/ha): 50%; Growth controlling degree (%) Crabgrass ([9]; active ingredient 250 g/ha): 98%; Growth controlling degree (%) Prickly sida ([10]; active ingredient 500 g/ha): 90%; Growth controlling degree (%) Prickly sida ([12]; active ingredient 250 g/ha): 80%; Growth controlling degree (%) Green foxtail ([13]; active ingredient 250 g/ha): 90%; Growth controlling degree (%) Rice ([14]; active ingredient 500 g/ha): 20%; Growth controlling degree (%) Crabgrass ([15]; active ingredient 500 g/ha): 95%; Growth controlling degree (%) Redroot pigweed ([16]; active ingredient 250 g/ha): 90%; Growth controlling degree (%) Barnyardgrass ([17]; active ingredient 250 g/ha): 60%; Growth controlling degree (%) Velvetleaf ([18]; active ingredient 500 g/ha): 95%; Growth controlling degree (%) Rice ([19]; active ingredient 250 g/ha): 40%
CC(C)C(c1cnccc1C(F)(F)F)N(C)C(=O)Cc1ccc(F)cc1F (stereo not drawn) [I-18]	90	10	90	80	90	50	70	70	90	80	50	100	90	80	100	50	90	80	100	90	Growth controlling degree (%) Rice ([19]; active ingredient 500 g/ha): 20%
CC(C)C(c1cnccc1C(F)(F)F)N(C)C(=O)Cc1cccc(F)c1F (stereo not drawn) [I-19]	95	35	95	50	80	30	90	70	80	80	30	100	80	98	100	20	90	80	95	80	Growth controlling degree (%) Rice ([19]; active ingredient 500 g/ha): 10%
